One test addresses T1, G106V mutant of p110α (Homo sapiens, UniProt P42336, G106V).
T1 construct: Full-length p110α was expressed in a complex with full-length p85α (for biochemistry and HDX-MS); 6xHis followed by TEV protease site (N); made in house; host or cells: Spodoptera frugiperda Sf9 (plasmid JB35)
Description: FRET membrane binding, oncogenic mutant G106V. The class given is biochemical. As to the method: Co-stimulation of 1938 with pY led to an additive activatory effect for G106V, but not for the N345K and E545K mutants (FIG. 1f/FIG. 22f).
Membrane binding assays were performed as previously published (Burke, J. E. et al. Proc Natl Acad Sci USA 109, 15259-15264 (2012)). Briefly, liposomes were prepared with 5% (w/v) brain PtdIns(4,5)P2, 20% brain phosphatidylserine, 35% brain phosphatidylethanolamine, 15% brain phosphatidylcholine, 10% cholesterol, 5% sphingomyelin, and 10% dansyl-phosphatidylserine (Avanti Polar Lipids). PI3Kα was used at a final concentration of 0.5 μM. Protein solutions were preincubated with 10 μM pY or compounds for 10 min before addition of liposomes. Liposomes were used at a final concentration of 50 μg/ml. The reaction mixture contained 5 μl enzyme, 2 μl compound and 3 μl liposomes, all diluted in 30 mM HEPES, 50 mM NaCl, pH 7.4. The reaction was allowed to proceed for 10 min at room temperature in 384 black-polystyrene plates (Corning #3544) on an orbital shaker at 200 rpm. FRET signals were measured using PHERAStar (BMG) with a 280 nm excitation filter with 350 nm and 520 nm emission filters to measure Dansyl-PS FRET emissions, respectively. FRET signal shown as I-I0, where I is the intensity at 520 nm, and 10 is the intensity at 520 nm for the solution in the absence of protein.

In the next test the test system is PI3Kα-WT MEFs. Description: Cell number by crystal violet staining in MEFs. It is filed as cell-based, mouse. Particulars: 72 h. As to the method: MEFs were seeded at 5000 cells per well in 96-well plates in DMEM supplemented with 10% FBS and 1% P/S, and allowed to attach overnight. The next day, cells were serum-starved for 5 h prior to compound addition in fresh serum-free DMEM. After different time points, cells were rapidly washed with distilled H2O before fixed and stained in a solution of 0.5% crystal violet (Sigma-Aldrich cat #C0775) in 20% methanol (v:v) as described (Feoktistova, M. et al. Cold Spring Harb Protoc 2016, pdb prot087379 (2016). Briefly, after 20 min incubation at room temperature on a rocking platform, fixed and stained cells were washed 3 times with distilled H2O and plates air-dried overnight. 200 μl methanol was next added to each well and the plates were incubated at room temperature for 20 min on a bench rocker, followed by measurement of optical density at 570 with a plate reader.

Test [1] concerns pAKT^S473 in mouse embryonic fibroblasts (MEFs). Description: pAKT S473 by Wes western blotting in MEFs. The class given is cell-based. The text has this:
The inventors next monitored the activation of AKT, the best-known PI3K effector stimulated by PIP3/PI(3,4)P2 production in cells. […] As previously reported, PI3Kα-null MEFs still respond to insulin, but now in a PI3Kβ-dependent manner, as shown by sensitivity of insulin-stimulated pAKT^S473 to the PI3Kβ-selective inhibitor TGX-221 (FIG. 3b). […] Similar observations were made for mTORC1 pathway activation, as measured by S6 (Ser240/44) and 4EBP1 (Ser65) phosphorylation (FIG. 3e). […] Experiments with A549 cells and MEFs were performed separately using slightly different protocols. Briefly, A549 cells were seeded at 200,000 cells per well in 24-well plates in DMEM (10% FBS+1% P/S) and allowed to adhere overnight. The next day, cells were washed once with PBS before addition of serum-free DMEM for 24 h. On the day of treatment, cells were incubated in fresh serum-free DMEM prior to treatment. […]
Background: Immunoblotting shows a protein as a band on a membrane.

For the next test, the system named is isolated rat hearts. Description: Langendorff ex vivo perfused rat heart model of IRI. Particulars: 5 μM.

T1 sequence (P42336 whole entry G106V): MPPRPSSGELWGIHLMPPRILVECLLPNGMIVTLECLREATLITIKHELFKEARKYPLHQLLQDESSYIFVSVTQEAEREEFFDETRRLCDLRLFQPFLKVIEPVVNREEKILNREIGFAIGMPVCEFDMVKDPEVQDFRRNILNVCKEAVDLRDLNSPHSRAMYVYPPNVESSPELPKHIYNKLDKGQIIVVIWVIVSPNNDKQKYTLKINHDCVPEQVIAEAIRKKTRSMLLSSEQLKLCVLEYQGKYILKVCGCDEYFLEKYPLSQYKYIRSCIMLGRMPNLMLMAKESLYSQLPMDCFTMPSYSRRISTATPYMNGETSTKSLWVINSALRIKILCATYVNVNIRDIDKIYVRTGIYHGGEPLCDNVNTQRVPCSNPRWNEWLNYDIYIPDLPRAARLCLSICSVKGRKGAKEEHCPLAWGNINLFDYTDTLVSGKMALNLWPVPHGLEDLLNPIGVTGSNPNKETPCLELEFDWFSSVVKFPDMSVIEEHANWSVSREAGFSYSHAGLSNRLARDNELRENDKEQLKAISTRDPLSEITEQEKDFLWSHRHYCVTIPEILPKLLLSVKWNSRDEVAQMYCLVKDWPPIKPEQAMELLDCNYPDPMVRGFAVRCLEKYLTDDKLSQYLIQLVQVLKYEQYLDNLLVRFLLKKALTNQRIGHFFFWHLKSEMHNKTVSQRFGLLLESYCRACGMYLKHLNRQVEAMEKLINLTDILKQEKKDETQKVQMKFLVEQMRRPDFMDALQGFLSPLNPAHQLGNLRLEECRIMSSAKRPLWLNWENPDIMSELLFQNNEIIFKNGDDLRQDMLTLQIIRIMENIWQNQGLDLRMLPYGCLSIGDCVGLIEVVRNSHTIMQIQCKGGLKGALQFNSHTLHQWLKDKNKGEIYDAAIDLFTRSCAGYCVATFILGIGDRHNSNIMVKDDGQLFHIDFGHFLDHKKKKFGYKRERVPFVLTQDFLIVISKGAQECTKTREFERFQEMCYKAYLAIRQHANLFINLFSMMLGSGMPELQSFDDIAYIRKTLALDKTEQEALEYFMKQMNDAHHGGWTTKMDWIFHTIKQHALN
T1 sequence (P27986 whole entry partner): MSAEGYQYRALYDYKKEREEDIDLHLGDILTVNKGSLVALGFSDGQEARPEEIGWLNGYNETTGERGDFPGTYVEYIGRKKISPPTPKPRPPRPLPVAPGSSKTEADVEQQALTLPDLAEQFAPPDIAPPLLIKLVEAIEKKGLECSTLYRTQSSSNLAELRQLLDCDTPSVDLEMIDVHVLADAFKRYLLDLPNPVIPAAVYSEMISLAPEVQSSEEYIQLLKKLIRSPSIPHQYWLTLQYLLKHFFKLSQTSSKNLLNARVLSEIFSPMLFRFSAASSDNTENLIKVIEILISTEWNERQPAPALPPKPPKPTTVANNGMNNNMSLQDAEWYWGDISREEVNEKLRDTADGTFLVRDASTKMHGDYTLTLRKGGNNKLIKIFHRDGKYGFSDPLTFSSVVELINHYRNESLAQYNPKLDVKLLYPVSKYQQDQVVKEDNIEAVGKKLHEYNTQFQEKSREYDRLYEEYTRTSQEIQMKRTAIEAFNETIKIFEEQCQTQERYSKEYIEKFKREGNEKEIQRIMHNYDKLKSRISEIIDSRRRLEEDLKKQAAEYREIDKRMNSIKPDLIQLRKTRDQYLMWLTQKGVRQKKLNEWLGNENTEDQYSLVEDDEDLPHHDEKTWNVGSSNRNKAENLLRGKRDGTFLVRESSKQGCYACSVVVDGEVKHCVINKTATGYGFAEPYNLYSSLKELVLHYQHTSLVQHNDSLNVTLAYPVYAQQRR

Usually EC50 stands for the midpoint of the concentration-response curve. Take `CCN1CCN(c2ccc(Nc3cc(Nc4cccc5c4N(C(C)=O)CC5)ccn3)cc2)CC1` [Example 1938]: at G106V mutant of p110α, the “membrane binding of G106V” value is given as “did not increase”. In addition, the “cell number (crystal violet staining)” value in the test with PI3Kα-WT MEFs is “an increase in cell number”. The half-maximal effective concentration (EC50) in test [1] (Mus musculus, Fibroblast, 0.25 h, read-out: EC50 for induction of pAKT, MEFs, 15 min treatment) was in the range of 2 to 4 µM. Also, in test [1] (PI3Kα-null MEFs, 15 min), the “pAKT^S473 in PI3Kα-null MEFs” value is “no pAKT^S473 phosphorylation was observed”. In addition, the “pAKT S473 in perfused rat hearts” value in the test on isolated rat hearts was “increase in generation of pAKTS473”. For the same compound, in the test on isolated rat hearts (administration during first 15 min of reperfusion), the “tissue protection from IRI” value is reported as “substantial tissue protection from IRI”.

The values are drawn from patent publication US20250263404A1, “AMINOPYRIDINES AS ACTIVATORS OF PI3 KINASE” (UCL Business Ltd, priority 2021, published 2025).
